Measurements: PubChem BioAssay AID248 (DTP/NCI, 2004)
“And” between values parts separate entries of the source, which are not always exact repeats. Identical values can stand only once. Toxic doses and inconclusive results are not listed. Cut-off read from the data, not from the text of the source: active = T/C of 150% or more; inactive = T/C below 125%.

Tested on: L1210 leukemia ip in BDF1 mice, survival T/C
Assay: NCI In Vivo Anticancer Drug Screen. Data for tumor model L1210 Leukemia (intraperitoneal) in B6D2F1 (BDF1) mice
Conditions: endpoint: mean survival time, higher = longer survival
Summary of the method: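 Tumor cells were implanted, animals were treated, and survival was followed. The result divides the treated measurement by the vehicle-control measurement.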

[1] = dose: 100.0 mg/kg/injection, schedule: Q01DX001 (ip), vehicle: Klucel (hydroxypropylcellulose) (HPC)
[2] = dose: 200.0 mg/kg/injection, schedule: Q01DX001 (ip), vehicle: Klucel (hydroxypropylcellulose) (HPC)
[3] = dose: 400.0 mg/kg/injection, schedule: Q01DX001 (ip), vehicle: Klucel (hydroxypropylcellulose) (HPC)
[4] = dose: 100.0 mg/kg/injection, schedule: Q04DX003 (ip), vehicle: saline
[5] = dose: 200.0 mg/kg/injection, schedule: Q04DX003 (ip), vehicle: saline
[6] = dose: 100.0 mg/kg/injection, schedule: Q04DX002 (ip), vehicle: Klucel (hydroxypropylcellulose) (HPC)
[7] = dose: 200.0 mg/kg/injection, schedule: Q04DX002 (ip), vehicle: Klucel (hydroxypropylcellulose) (HPC)
[8] = dose: 400.0 mg/kg/injection, schedule: Q04DX002 (ip), vehicle: Klucel (hydroxypropylcellulose) (HPC)
[9] = dose: 100.0 mg/kg/injection, schedule: Q01DX001 (ip), vehicle: saline
[10] = dose: 200.0 mg/kg/injection, schedule: Q01DX001 (ip), vehicle: saline
[11] = dose: 400.0 mg/kg/injection, schedule: Q01DX001 (ip), vehicle: saline
[12] = dose: 400.0 mg/kg/injection, schedule: Q04DX003 (ip), vehicle: saline
[13] = dose: 100.0 mg/kg/injection, schedule: Q01DX009 (ip), vehicle: Klucel (hydroxypropylcellulose) (HPC)
[14] = dose: 200.0 mg/kg/injection, schedule: Q01DX009 (ip), vehicle: Klucel (hydroxypropylcellulose) (HPC)
[15] = dose: 100.0 mg/kg/injection, schedule: Q01DX001 (ip), vehicle: saline with Tween-80
[16] = dose: 50.0 mg/kg/injection, schedule: Q01DX001 (ip), vehicle: saline
[17] = dose: 400.0 mg/kg/injection, schedule: Q01DX009 (ip), vehicle: Klucel (hydroxypropylcellulose) (HPC)
[18] = dose: 100.0 mg/kg/injection, schedule: Q04DX003 (ip), vehicle: Klucel (hydroxypropylcellulose) (HPC)
[19] = dose: 200.0 mg/kg/injection, schedule: Q04DX003 (ip), vehicle: Klucel (hydroxypropylcellulose) (HPC)
[20] = dose: 400.0 mg/kg/injection, schedule: Q04DX003 (ip), vehicle: Klucel (hydroxypropylcellulose) (HPC)
[21] = dose: 75.0 mg/kg/injection, schedule: Q01DX001 (ip), vehicle: saline
[22] = dose: 150.0 mg/kg/injection, schedule: Q01DX001 (ip), vehicle: saline

Measured: T/C

O=C(O)CNC(=O)CNC(=O)C1NC(C(F)(F)F)(C(F)(F)F)OC1(C(F)(F)F)C(F)(F)F (configuration not stated)
inactive: [1] 97 % of control | [2] 101 % of control | [3] 92 % of control

CN(C)CC1CCCCN1 (configuration not stated)
inactive: [4] 93 % of control | [5] 97 % of control

CCCCCCCCC(=O)Nc1ccc(O)cc1
inactive: dose: 100.0 mg/kg/injection, schedule: Q01DX009 (ip), vehicle: gum acacia 97 % of control | dose: 100.0 mg/kg/injection, schedule: Q04DX003 (ip), vehicle: gum acacia 104 % of control | dose: 200.0 mg/kg/injection, schedule: Q01DX009 (ip), vehicle: gum acacia 105 % of control | dose: 200.0 mg/kg/injection, schedule: Q04DX003 (ip), vehicle: gum acacia 88 % of control | dose: 400.0 mg/kg/injection, schedule: Q01DX009 (ip), vehicle: gum acacia 112 % of control | dose: 400.0 mg/kg/injection, schedule: Q04DX003 (ip), vehicle: gum acacia 102 % of control

CC(C)CN1C(c2ccccc2)=CN(Cc2ccccc2)C=C1c1ccccc1
inactive: [6] 100 % of control | [7] 120 % of control | [8] 113 % of control

COC(=O)Cc1cc(OC)c(OC)cc1I
inactive: [9] 105 % of control | dose: 100.0 mg/kg/injection, schedule: Q01DX009 (ip), vehicle: saline 96 % of control | [10] 100 % of control | dose: 200.0 mg/kg/injection, schedule: Q01DX009 (ip), vehicle: saline 102 % of control | [11] 102 % of control | dose: 400.0 mg/kg/injection, schedule: Q01DX009 (ip), vehicle: saline 102 % of control

c1ccc2c(c1)Sc1cnccc1N2CC1CO1 (configuration not stated)
inactive: [4] 96 % of control | [5] 92 % of control | [12] 96 % of control

CC(=O)Nc1ccc(S(=O)(=O)c2ccc(NC(C)=O)cc2)cc1
inactive: dose: 50.0 mg/kg/injection, schedule: Q01DX009 (ip), vehicle: Klucel (hydroxypropylcellulose) (HPC) 103 % of control | [13] 93 % of control | [14] 97 % of control

O=C1c2ccccc2CC/C(=N\O)C1c1ccccc1 (configuration not stated)
inactive: [15] 107 % of control | dose: 200.0 mg/kg/injection, schedule: Q01DX001 (ip), vehicle: saline with Tween-80 98 % of control | dose: 400.0 mg/kg/injection, schedule: Q01DX001 (ip), vehicle: saline with Tween-80 104 % of control

O=C(O)C(Cl)C(C(=O)O)c1ccccc1 (configuration not stated)
inactive: dose: 100.0 mg/kg/injection, schedule: Q04DX002 (ip), vehicle: saline with Tween-80 101 % of control | dose: 200.0 mg/kg/injection, schedule: Q04DX002 (ip), vehicle: saline with Tween-80 93 % of control | dose: 400.0 mg/kg/injection, schedule: Q04DX002 (ip), vehicle: saline with Tween-80 93 % of control

CS(=O)(=O)OCCN1CCC2(CC1)SSC1(CCN(CCOS(C)(=O)=O)CC1)S2
inactive: dose: 6.25 mg/kg/injection, schedule: Q01DX009 (ip), vehicle: saline 98 % of control | dose: 12.5 mg/kg/injection, schedule: Q01DX009 (ip), vehicle: saline 101 % of control | dose: 12.5 mg/kg/injection, schedule: Q04DX003 (ip), vehicle: saline 108 % of control | dose: 25.0 mg/kg/injection, schedule: Q04DX003 (ip), vehicle: saline 95 % of control

CC(=O)OCC1OC(n2cnc(N)c2C#N)C(OC(C)=O)C1OC(C)=O (configuration not stated)
inactive: [16] 98 % of control | [9] 102 % of control | [10] 102 % of control | [11] 102 % of control

Cc1ccc(S(=O)(=O)NCCCOS(=O)(=O)c2ccc(C)cc2)cc1
inactive: [13] 104 % of control | dose: 100.0 mg/kg/injection, schedule: Q04DX003 (ip), vehicle: acetone 97 % of control | [14] 93 % of control | dose: 200.0 mg/kg/injection, schedule: Q04DX003 (ip), vehicle: acetone 95 % of control | [17] 93 % of control | dose: 400.0 mg/kg/injection, schedule: Q04DX003 (ip), vehicle: acetone 94 % of control

CC1OC(C(Cl)(Cl)Cl)NC1=O (configuration not stated)
inactive: dose: 100.0 mg/kg/injection, schedule: Q04DX002 (ip), vehicle: saline 89 % of control | dose: 200.0 mg/kg/injection, schedule: Q04DX002 (ip), vehicle: saline 99 % of control | dose: 400.0 mg/kg/injection, schedule: Q04DX002 (ip), vehicle: saline 89 % of control

CCCCC/C=C/c1c(C)[nH]c2ccccc2c1=O
inactive: [13] 118 % of control | [18] 100 % of control | [14] 94 % of control | [19] 96 % of control | [17] 99 % of control | [20] 89 % of control

O=C(N/N=C/NN/C=N/NC(=O)c1ccncc1)c1ccncc1
inactive: [21] 101 % of control | [22] 100 % of control

CC(=O)CC(=O)Nc1cc(C)ccc1C
inactive: [4] 101 % of control | [5] 118 % of control | [12] 95 % of control

O=C(O)c1cc(-c2ccc(Cl)cc2)nc2c(-c3ccccc3)cccc12
inactive: dose: 100.0 mg/kg/injection, schedule: Q04DX003 (ip), vehicle: saline with Tween-80 95 % of control | dose: 200.0 mg/kg/injection, schedule: Q04DX003 (ip), vehicle: saline with Tween-80 95 % of control | dose: 400.0 mg/kg/injection, schedule: Q04DX003 (ip), vehicle: saline with Tween-80 90 % of control

Clc1ccc2c(c1)C([P+](c1ccccc1)(c1ccccc1)c1ccccc1)c1cc(Cl)cc(Cl)c1-2 (configuration not stated)
inactive: [1] 95 % of control | [18] 102 % of control | [2] 93 % of control | [19] 96 % of control | [3] 95 % of control | [20] 104 % of control

c1n[nH]c2c1CCC2
inactive: dose: 75.0 mg/kg/injection, schedule: Q01DX009 (ip), vehicle: saline with Tween-80 97 % of control | dose: 150.0 mg/kg/injection, schedule: Q01DX009 (ip), vehicle: saline with Tween-80 110 % of control

CCCCCCCCCCC[As](=O)(O)O
inactive: dose: 12.5 mg/kg/injection, schedule: Q01DX001 (ip), vehicle: carboxymethylcellulose (CMC) 108 % of control | dose: 25.0 mg/kg/injection, schedule: Q01DX001 (ip), vehicle: carboxymethylcellulose (CMC) 96 % of control | dose: 50.0 mg/kg/injection, schedule: Q01DX001 (ip), vehicle: carboxymethylcellulose (CMC) 104 % of control

CSC(CC(=O)O)C(=O)O (configuration not stated)
inactive: [21] 97 % of control | [22] 108 % of control

Cc1cc(C(=O)CBr)c(CN2C(=O)c3ccccc3C2=O)c(=O)n1C
inactive: [15] 101 % of control

COc1ccc(NC(=O)Nc2cccc(SC)c2)cc1
inactive: dose: 100.0 mg/kg/injection, schedule: Q01DX009 (ip), vehicle: carboxymethylcellulose (CMC) 94 % of control and 97 % of control | [6] 93 % of control | dose: 100.0 mg/kg/injection, schedule: Q04DX002 (ip), vehicle: carboxymethylcellulose (CMC) 97 % of control and 101 % of control | dose: 100.0 mg/kg/injection, schedule: Q04DX003 (ip), vehicle: carboxymethylcellulose (CMC) 94 % of control | dose: 200.0 mg/kg/injection, schedule: Q01DX009 (ip), vehicle: carboxymethylcellulose (CMC) 92 % of control and 95 % of control | [7] 93 % of control | dose: 200.0 mg/kg/injection, schedule: Q04DX002 (ip), vehicle: carboxymethylcellulose (CMC) 100 % of control and 91 % of control | dose: 200.0 mg/kg/injection, schedule: Q04DX003 (ip), vehicle: carboxymethylcellulose (CMC) 86 % of control | dose: 400.0 mg/kg/injection, schedule: Q01DX009 (ip), vehicle: carboxymethylcellulose (CMC) 94 % of control | [8] 107 % of control | dose: 400.0 mg/kg/injection, schedule: Q04DX002 (ip), vehicle: carboxymethylcellulose (CMC) 111 % of control and 91 % of control | dose: 400.0 mg/kg/injection, schedule: Q04DX003 (ip), vehicle: carboxymethylcellulose (CMC) 93 % of control

Fc1cccc(N2CCOCC2)c1
inactive: [16] 101 % of control | [9] 93 % of control | [10] 101 % of control
